According to US20070155698A1, “Oxazaborolidines as bacteria effectors” (priority 2003, published 2007):
Values after ≈ are worked out from the molar mass of the structure shown. Like-named read-outs stand apart in the source and are kept apart here.

What was measured:
[1] = test system: S. mutans ATCC 27351; test: Minimal inhibitory concentration (MIC), turbidity of overnight growth; format: cell-based; settings: for MIC: Streptococcus mutans, read-out: MIC Mean
Protocol: Sterile microculture dishes containing multiple wells were used to determine the minimal inhibitory concentration MIC) of eight derivatives of oxazborolidines. Each well contained 120 μl of brain heart infusion medium, 15 μl of an overnight suspension of S. mutans ATCC 27351 adjusted to 1 OD540 nm and 15 μl of the tested compound. Each compound was tested at five different concentrations between 0-50 mM. Each experiment was repeated twice. These cultures were incubated at 37° C. in atmosphere enriched in 5% CO2 for 24 hours. Bacteria growth was determined as turbidity of the over night growth and was determined by computerized ELISA reader (Thermomax microplate reader, Molecular Devices, USA) at 650 nm. Control cultures of bacteria with no oxazaborolidines added and media broth with the oxzaborilidines added but with no bacteria were conducted.

[2] = test system: AI-2 reporter strain Vibrio harveyi BB170; test: Induction of bioluminescence in the AI-2 reporter strain (quorum sensing); format: cell-based
Protocol: Bright overnight culture was diluted 1:5000 and the bioluminescence was traced along growth of the diluted bacterial culture. BNO-1 in tested concentrations was added at start of the bacterial growth. For calculation of fold induction was used the bioluminescence levels at 3 hr after start of the growth.
(§1) Luminescence was monitored by Lumac/3M Biocounter M2010, Netherlands. Culture density was measured as CFU on selective solid LM (L-marine) medium per ml of culture. Relative luminescence (“bioluminescence” in figures) was calculated as quotient of luminescence and culture density and expressed in relative light units (RLU, count/10^6 CFU).
(§2) Fold induction was calculated as relation between induced by BNO-1 and not induced relative luminescence. A measure of inhibition was defined as relation of induced by AI-2 relative luminescence in the presence and in the absence of BNO-2.

[3] = test system: bacterial adhesion to hydroxyapatite (HA) beads; test: Adhesion of radioactively labeled bacteria to hydroxyapatite beads; format: cell-based; settings: 60 mM
Protocol: 40 mg samples of hydroxyapatite (HA) beads (Ceramic hydroxyapatite type I, 80 um, Bio-Rad Laboratories, Hercules, Calif., USA)) (surface area, 0.63 cm^2/mg) were equilibrated with 3 washes of buffered KCl to which 250 μl of labeled radioactive bacteria (prepared as described above), 400 μl of the tested boronic compound and 50 μl of 700 mM sucrose (in KCl buffer solution) were added. The mixture was incubated for 60 min at 37 C with gentle rotation. At the end of the incubation period, the beads were washed 3 times with buffered KCl for removal of unbound components, especially the non-adsorbed labeled bacteria, and then rinsed with 2 ml ethanol into vials containing 10 ml scintillation fluid (Ecoscint A, National Diagnostics, Manville, N.J.). The amount of radioactively labeled bacteria adsorbed onto the HA beads was measured by scintillation counting (BETAmatic scintillation counter (Koutron®, Basel, Switzerland). Results are expressed as percent of bacterial adhesion in comparison to a control group containing no agent.

[4] = test system: AI-2 reporter strain Vibrio harveyi BB170; test: Inhibition of AI-2-induced bioluminescence (quorum sensing); format: cell-based; settings: added together with exogenous AI-2
Protocol: Bright overnight culture was diluted 1:5000 and the bioluminescence was traced along growth of the diluted bacterial culture at the presence of AI-2 which was added at start of the bacterial growth in the induced concentration. BNO-2 in tested concentrations was added at start of the bacterial growth. The residual bioluminescence is expressed as part of maximal, AI-2-inducted and non-inhibited bioluminescence. For the calculation was used bioluminescence level at 2.5 hr after start of the growth.
as §1, §2

[5] = Effect of pH on the oxazaborolidine derivatives (11B NMR); format: physicochemical; settings: pH=10.8
Excerpt: At pH=10.8, the free n-butylboronic acid has a chemical shift of 19.974 ppm, while BNO3, the B-butyl containing derivative gives two peaks, one at 24.868 ppm (90%) which is the intermediate and a peak at 6.8 ppm (10%) that belongs to the mentioned above complex. At further basic conditions, a peak at 5.2 ppm exist which indicate a complete conversion to an ate-complex moiety.
On the other hand, the B-phenyl containing derivatives are converted to the ate-complex once they are fully dissolved in H2O, the ate-complex appears at 5.461 ppm in the ^11B NMR.

[6] = ATCC27351, S. mutans, 24 hours, 37° C.

Compound	antibacterial efficacy against S. mutans (MIC based, in words) [1]	MIC Range ([1]; S. mutans, 24 hours, 37° C.)	MIC [1, 6]	further results
CC1C(c2ccccc2)OB(c2ccccc2)N1C (stereo not drawn) [BNO1, 3,4-dimethyl-2,5-diphenyl-1,3,2-oxazaborolidine]	most active	0.77 to 2.33 mM	–	MIC ([1]; ATCC27351, 24 h): 1550 µM (≈ 389 µg/mL); induction of bioluminescence of Vibrio harveyi BB170 ([2]; dose dependent, sensor 1− sensor 2+): induced; induction of bioluminescence in mutants with sensor 2− ([2]; sensor 2− mutants): do not react
CC1(C)COB(c2ccccc2)N1 [BNO2, 4,4-dimethyl-2-phenyl-1,3,2-oxazaborolidine]	–	2 to 10 mM	6000 µM (≈ 1050 µg/mL)	promotion of bacterial adhesion [3]: 37%; inhibition of the ability of exogenous AI-2 to induce bioluminescence [4]: strongly inhibited
CCCCB1NC(C)(C)CO1 [BNO3, 2-butyl-4,4-dimethyl-1,3,2-oxazaborolidine]	–	2.25 to 4.5 mM	3380 µM (≈ 524 µg/mL)	reduction of bacterial capability to adhere to hydroxyapatite surface [3]: 63%; share of ate-complex (11B NMR peak at 6.8 ppm) [5]: 10%; share of intermediate (11B NMR peak at 24.868 ppm) [5]: 90%
CC1NB(c2ccccc2)OC1c1ccccc1 (stereo not drawn) [BNO4, 4-methyl-2,5-diphenyl-1,3,2-oxazaborolidine]	–	0.90 to 1.75 mM	1330 µM (≈ 315 µg/mL)	–
CCCCB1OC(c2ccccc2)C(C)N1C (stereo not drawn) [BNO5, 2-butyl-3,4-dimethyl-5-phenyl-1,3,2-oxazaborolidine]	most active	0.26 to 0.80 mM	530 µM (≈ 123 µg/mL)	–
CCCCB1NC(C)C(c2ccccc2)O1 (stereo not drawn) [BNO6, 2-butyl-4-methyl-5-phenyl-1,3,2-oxazaborolidine]	–	1.90 to 3.75 mM	2830 µM (≈ 614 µg/mL)	–
[(2-)-N,O,O′[2,2′-Iminobis[ethanolato]]]-2-n-butylboron [BNO7]	weakest activity	4.5 to 9.0 mM	–	MIC Mean ([1]; S. mutans, 24 hours, 37° C.): 6.75 mM
[(2-)-N,O,O′[2,2′-Iminobis[ethanolato]]]-2-phenylboron [BNO8]	weakest activity	4.5-9. mM	–	MIC Mean ([1]; S. mutans, 24 hours, 37° C.): 06.75 mM
